Measurements as given in patent publication US5171741A, “Bacteriochlorophyll-a derivatives useful in photodynamic therapy” (Health Research, Inc., priority 1989, dated 1992).
Where two headings read alike, the source gives them in different places.

How the values were obtained:
[1] = as compared to bacteriochlorophyll-a; Beems et al.; cited from earlier work
[2] = system: skin of the foot; assay: Cutaneous photosensitivity of the foot of treated mice versus tumor response (therapeutic ratio); assay type: in vivo
Method: One of the undesirable side effects of photodynamic therapy using certain compounds is cutaneous photosensitivity unrelated to the target biological substrate. Accordingly, the effect of the treatment on the photosensitivity of the foot of the treated mice was measured. The response of the foot was measured as erythema and/or edema (or loss of skin or further damage).

[3] = Chemical and in vivo stability of bchla
[4] = system: SMT-F tumors; assay: Photodynamic treatment of SMT-F tumors in mice with bchla, tumor response; assay type: in vivo, DBA2/HaD mice
Method: DBA2/HaD mice were transplanted with SMT-F tumors. When the subcutaneous tumors reached 4.5-5.5 mm in diameter, the mice, in groups of five, were injected intravenously with the bchla solution of Example 1 in doses of 5-30 mg/kg. At a time 1 hour-5 days later, the tumor, previously shaved and depiliated, plus a margin of 2-3 mm was exposed to radiation of a wavelength in the range 630-800 nm using a Spectraphysics argon dye laser with Exciton LDS751 dye, tunable over the 700-800 nm range or a diode laser--e. g., Spectra Diode emitting in the 750-850 nm range or a Xenon arc lamp filtered with an interference filter to pass 90% of the 700 nm light ±60 nm at dose rates of 75-150 mW/cm^2. When the Xenon system was used, mild hyperthermia resulted (42° C. at 160 mW/cm^2). It is not known whether this temperature rise acts synergistically with bchla as has been shown with HpD and its active fraction.
Tumor response is shown in the table of FIG. 1 for the seventh day after light treatment which indicates regression, and at a time point at least 30 days after light treatment, which would indicate cure, if there had been no regrowth.
As shown in FIG. 1 good response to bchla was obtained, for example, after 2 hours at 5 mg/kg in the 670-790 nm range and after 24 hours after injection with 10 mg/kg and irradiated at 680-780 nm. […]

[5] = Uptake, clearance and metabolism of bchla in tumor and liver (extraction, HPLC); assay type: in vivo, DBA/2 Ha mice; conditions: for concentration at 2 h: 2 h after injection; for concentration at 24 h: 24 h after injection
Method: Uptake and clearance of bchla in tumor and liver were measured by extraction of the tumor or liver tissue with 1:1MeOH:CH2 Cl2, followed by HPLC analysis.
bchla Uptake in DBA/2 Ha Mice in SMT-F Tumor

[6] = cited from earlier work

Compound: CCC1c2cc3[nH]c(c(CC(=O)O)c4nc(cc5[nH]c(cc(n2)C1C)c(C(C)=O)c5C)C(C)C4CCC(=O)O)c(C(=O)O)c3C (stereo not shown) [bacteriochlorin-a]
- Water solubility [1]: enhanced water solubility

Compound: CCC1C2=NC(=Cc3c(C(C)=O)c(C)c4[n]3[Mg][n]3c(c(C)c(C(=O)O)c3=C(CC(=O)O)C3=NC(=C4)C(C)C3CCC(=O)O)=C2)C1C (stereo not shown) [bacteriochloro-phyllin-a]
- Water solubility [1]: enhanced water solubility

Compound: CCC1C2=NC(=Cc3c(C(C)=O)c(C)c4[n]3[Mg][n]3c(c(C)c5c3=C(C3=NC(=C4)C(C)C3CCC(=O)OCC=C(C)CCCC(C)CCCC(C)CCCC(C)C)C(C(=O)OC)C5=O)=C2)C1C (stereo not shown) [bchla, Bacteriochlorophyll-a]
- Expected persistence of sensitivity to light ([2]; expected from the mouse foot response): only a few days
- Sensitivity of the tumor and the skin of the foot as a function of time ([2]; mice, FIG. 3): declined concomitantly
- Stability in vivo [3]: sufficiently stable in vivo
- Tumor response ([4]; 5 mg/kg i.v., 2 hours after injection, 670-790 nm range): good response
- Tumor response ([4]; 10 mg/kg i.v., 24 hours after injection, irradiated at 680-780 nm): good response
- Levels in tumor and liver maintained ([5]; 24 or 48 hours): maintained for as long as 24 or 48 hours
- Levels in tumor and liver ([5]; after 2 hours): high levels
- Composition of material in tumor ([5]; at 24 hours): demetallized but still contains phytyl
- Composition of material in tumor ([5]; at 48 hours): mainly material without phytyl and without Mg
- Time of partial conversion to bacteriopheophytin ([5]; liver): 2 h
- concentration at 2 h ([5]; mouse, liver, 10 mg/kg, read-out: Tissue Level, Liver): 44000 ng/g
- concentration at 24 h ([5]; mouse, liver, 10 mg/kg, uncertain (*), conversion to other components, read-out: Tissue Level, Liver): 49400 ng/g
- concentration at 2 h ([5]; mouse, tumor, 10 mg/kg, read-out: Tissue Level, Tumor): 6140 ng/g
- concentration at 48 h ([5]; mouse, tumor, 10 mg/kg, 48 h after injection, uncertain (*), conversion to other components, read-out: Tissue Level, Tumor): 10700 ng/g
- concentration at 2 h ([5]; mouse, tumor, 20 mg/kg, read-out: Tissue Level, Tumor): 16000 ng/g
- concentration at 24 h ([5]; mouse, tumor, 20 mg/kg, uncertain (*), conversion to other components, read-out: Tissue Level, Tumor): 10000 to 19700 ng/g
- Time of partial conversion to bacteriopheophytin ([5]; tumor): ≥ 24 h
- Composition of material in tumor ([5]; two hours after injection): essentially only bchla with a small amount of material wherein the phytyl group has hydrolyzed
- Stability towards loss of magnesium ion ([6]; dilute acid): readily removed
- Stability towards oxidation ([6]; especially in the presence of light): readily oxidized
